The values below come from patent publication US20240366521A1, “NANOPARTICLES AND METHODS OF USE” (Qana Therapeutics Inc., priority 2023, published 2024).

The data set in a line: Solvent screen of MMAE. The class given is physicochemical. The settings on record: acetone, ethanol, and isopropanol. How it is done: A solvent screen of MMAE was conducted.

On to `CCC(C)C(C(CC(=O)N1CCCC1C(OC)C(C)C(=O)NC(C)C(O)c1ccccc1)OC)N(C)C(=O)C(NC(=O)C(NC)C(C)C)C(C)C` (stereo not shown) [MMAE, monomethyl auristatin E], for which the “solubility of MMAE in solvent” value was “good solubility”.
